Laboratory results: patent US12590127B2, “Split photoactive yellow protein complementation system and uses thereof” (PARIS SCIENCES ET LETTRES, priority 2019, dated 2026)

B1: iFAST: FAST variant with isoleucine at position 107 (SEQ ID NO: 16); its Nter fragment is SEQ ID NO: 30 (protein)
chain: MEHVAFGSEDIENTLAKMDDGQLDGLAFGAIQLDGDGNILQYNAAEGDITGRDPKQVIGKNFFKDVAPGTDSPEFYGKFKEGVASGNLNTMFEWMIPTSRGPTKVKIHMKKALSGDSYWVFVKRV
modifications: functional PYP

How the values were obtained:
NFAST = target: T1, NFAST (Halorhodospira halophila, UniProt P16113, C69G/D97P/F96I/M100R/Q99S/T101G/T95M/Y94W/Y98T); assay: Thermodynamic dissociation constants of NFAST:CFASTn couples in the presence of fluorogen (plate reader, one-site specific binding fit); conditions: synthetic CFASTn peptide and purified NFAST
T1 construct: His tag (N); made in house; host or cells: Rosetta (DE3) pLysS E. coli
T1 sequence (P16113 1-114 C69G/Y94W/T95M/F96I/D97P/Y98T/Q99S/M100R/T101G): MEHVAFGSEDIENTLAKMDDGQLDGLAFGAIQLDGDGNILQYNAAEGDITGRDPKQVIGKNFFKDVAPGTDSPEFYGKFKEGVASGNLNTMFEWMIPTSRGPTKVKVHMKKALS
Procedure: In one embodiment, the thermodynamic dissociation constant KD is determined by spectrofluorometric titration as described in the Examples.
Expression vectors were transformed in Rosetta (DE3) pLysS E. coli (NEW ENGLAND BIOLABS®). Cells were grown at 37° C. in LB medium complemented with 50 μg/mL kanamycin and 34 μg/mL chloramphenicol to OD600 nm 0.6. Expression was induced for 4 hours by adding isopropyl β-D-1-thiogalactopyranoside (IPTG) to a final concentration of 1 mM. Cells were harvested by centrifugation (4,000×g for 20 min at 4° C.) and frozen. The cell pellet was resuspended in lysis buffer (phosphate buffer 50 mM, NaCl 150 mM, MgCl2 2.5 mM, protease inhibitor, DNase, pH 7.4) and sonicated (5 min at 20% of amplitude, 3 sec on, 1 sec off). The lysate was incubated for 2 hours at 4° C. to allow DNA digestion by DNase. Cellular fragments were removed by centrifugation (9200×g for 1 hour at 4° C.). The supernatant was incubated overnight at 4° C. under gentle agitation with Ni-NTA agarose beads in phosphate buffered saline (PBS) (sodium phosphate 50 mM, NaCl 150 mM, pH 7.4) complemented with 10 mM imidazole. Beads were washed with 20 volumes of PBS containing 20 mM imidazole, and with 5 volumes of PBS complemented with 40 mM imidazole. His-tagged proteins were eluted with 5 volumes of PBS complemented with 0.5 M imidazole. The buffer was exchanged to PBS (50 mM phosphate, 150 mM NaCl, pH 7.4) using PD-10 desalting columns.
Thermodynamic dissociation constants for NFAST:CFASTn (n=8 to 11) couples were determined using peptides synthesized for CFASTn (n=8 to 11) and recombinantly purified NFAST. The affinity for NFAST:CFAST11 in the presence of 10 μM HMBR was determined independently from a minimum of three different purifications of NFAST. NFAST:CFAST11 was then run in parallel as an internal control for the determination of the other NFAST-CFAST combinations, which were all performed on the same day with the same preparation of NFAST. Thermodynamic dissociation constants were determined with a Spark 10M plate reader (TECAN®) and fit in Prism 6 to a one-site specific binding model.

HEK 293T cells = assay: Relative in-cell brightness of split-FAST after rapamycin-induced FRB-FKBP complementation; type: cell-based, human; conditions: FIG. 4; for relative in-cell brightness (fluorescence observed) by C-terminal fragment: FRB-NFAST + FKBP-CFASTn, any of HMBR, HBR-3,5DM, HBR-30M, HBR-3,5DOM
Excerpt: FIGS. 4A-4D are a set of histograms showing the relative in-cell brightness of various split-FAST with different fluorogenic HBR analogs as indicated (4A: HMBR, 4B: HBR-3,5DM, 4C: HBR-30M, and 4D: HBR-3,5DOM) in function of the C-terminal fragment CFASTn (n=11, 10 or 9) and the N-terminal fragment used. The iFAST label indicates when NFAST from iFAST (i.e., the first PYP fragment according to the invention consisting of the amino acid sequence NFAST with an isoleucine at position 107 instead of a valine as set forth in SEQ ID NO: 30) was used. If absent, NFAST from FAST was used (i.e., the first PYP fragment according to the invention consisting of the amino acid sequence as set forth in SEQ ID NO: 23). CFAST11, CFAST10 and CFAST9 correspond to the second PYP fragment according to the invention consisting of the amino acid sequence as set forth in SEQ ID NO: 34, SEQ ID NO: 42 and SEQ ID NO: 43, respectively. NFAST fragments were fused to FRB and CFAST fragments were fused to FKBP. Complementation was induced by addition of rapamycin. Split-FAST fluorescence was normalized by expression level using the fluorescence of co-expressed fluorescent proteins.
HEK 293T cells were seeded in ibidi μDish microscopy dishes and 24 hours prior to imaging were co-transfected with plasmids encoding CMV-FRB-NFAST (or NFAST(V107I))-P2A-mCherry (or EGFP)) and CMV-FKBP-CFASTn (n=11, 10 or 9). The cells were imaged before and after addition of 500 nM rapamycin.

HEK293 cells = assay: Photobleaching / photostability of split-FAST:HMBR in cells by confocal microscopy; type: cell-based, human; conditions: 10 μM HMBR, 488 nm excitation, rapamycin-treated cells, FAST as control, FIG. 5E
Procedure: FIGS. 5A-5G illustrate the detection of rapamycin-induced FRB-FKBP dimerization with the complementation system of the invention. 5A and 5B show HEK293T cells co-expressing FKBP-NFAST and FRB-CFASTn (n=10 or 11) which were labeled with 5 μM HMBR (5A) or 10 μM HBR-3,5DOM (5B) and imaged before and after addition of 100 nM rapamycin. Scale bars 10 μm. […] Cells expressing FRB-NFAST and FKBP-CFASTn (n=10 or 11) were treated with rapamycin to form split-FAST11 and split-FAST10. Cells expressing FAST were used as control. HMBR concentration was 10 μM. Excitation at 488 nm at 6.3 kW/cm2. Six cells were analyzed per condition. […] Scale bars 20 μm. […] Scale bars 20 μm.
Photobleaching measurements for HMBR were carried out at 10 μM fluorogen at 488 nm excitation (4.6 kW/cm2, […] pixel dwell); FAST was used as a control. Samples were imaged continuously for 1000 images at a 1 frame per second frequency.

[1] = KD of NFAST-CFASTn 10 μM HMBR, in the presence of 10 μM HMBR
[2] = KD of NFAST-CFASTn 10 μM HBR-3,5-DOM, in the presence of 10 μM HBR-3,5-DOM

Molecule	Kd (NFAST; [1]) [µM]	Kd (NFAST; [2]) [µM]	relative in-cell brightness (fluorescence observed) by C-terminal fragment (HEK 293T cells)	photostability of split-FAST:fluorogen assembly in cells (HEK293 cells)	fluorescence of the Nter fragment of iFAST + CFAST compared with NFAST + CFAST (HEK 293T cells; HEK 293T cells)
Ac-GDSYWVFV-NH2 [CFAST8]	21 ± 4				
Ac-GDSYWVFVK-NH2 [CFAST9]	5.7 ± 0.06	25 ± 1	lowest		
Ac-GDSYWVFVKR-NH2 [CFAST10]	0.95 ± 0.08	6.2 ± 0.5	lower	as photostable as the regular FAST:fluorogen complex	
Ac-GDSYWVFVKRV-NH2 [CFAST11]	0.21 ± 0.05	1.4 ± 0.2	highest	as photostable as the regular FAST:fluorogen complex	
B1					similar
